Source: patent publication US11224591B2 (Cipla Limited, priority 2016, dated 2022)

Tests used:
[1] = Caco-2 bidirectional assay (A-B and B-A) to study the effect of piperine (P-gp inhibitor) on the permeability; format: in vitro ADME; details: human
Description: (§1) Caco-2 cells were cultured in MEM media with 10% serum and seeded at a density of 75000 cells per mL and cultured for 21 days in a 24-well trans-well plate at 37° C., 5% CO2. The monolayer integrity was checked intermittently (Day 0-21) using Trans Epithelial Electric Resistance (TEER). Cells were treated with drugs as follows:
(§2) 2) Bidirectional Assay (A-B and B-A) to Study the Effect of Piperine (P-Gp Inhibitor) on the Permeability
(§3) For A-B, 400 μL samples were added to the wells as per the plate setup to the apical side in duplicates with 800 μL HBSS pH 7.4 in the basal wells. Samples were collected at 60, 90 and 120 minutes from the basal side. Mass balance samples at 0 and 120 minutes were collected from the apical side.
(§4) For B-A, 800 μL of the respective dilutions were added to the basal side in duplicates with 400 μL HBSS pH 7.4 in the apical wells. Samples were collected at 60, 90 and 120 minutes from the apical side. Mass balance samples at 0 and 120 minutes were collected from the basal side. The sample were analyzed on LCMS-MS.
(§5) At the end of the experiment the monolayer integrity was checked using and Lucifer yellow, calculating the % rejection of Lucifer yellow by incubating cells with 100 μg/mL Lucifer.
(§6) The apparent permeability (Papp) in units per second can be calculated by using the following equation,
(§7) For Lucifer yellow, % Lucifer Yellow Passage=[RFU(test)−RFU(blank)/RFU(equilibrium)−RFU(blank)]*100

Caco-2 cells = assay: as above; format: in vitro ADME; details: across the caco-2 monolayer; conclusion in words
Description: as §1, §2, §3, §4, §5, §6, §7

[2] = Digoxin 10 μM, Caco-2 monolayer, HBSS pH 7.4

C[C@H]1O[C@@H](O[C@H]2[C@@H](O)C[C@H](O[C@H]3[C@@H](O)C[C@H](O[C@H]4CC[C@@]5(C)[C@H](CC[C@@H]6[C@@H]5C[C@@H](O)[C@]5(C)[C@@H](C7=CC(=O)OC7)CC[C@]65O)C4)O[C@@H]3C)O[C@@H]2C)C[C@H](O)[C@@H]1O [Digoxin]
efflux ratio at 120 min, 10 μM ([1]; Caco-2, pH 7.4, Digoxin 10 μM, Papp B-A/Papp A-B): 12
Papp A→B at 120 min, 10 μM [1, 2]: 0.829 ×10⁻⁶ cm/s
Papp B→A at 120 min, 10 μM [1, 2]: 9.97 ×10⁻⁶ cm/s

CO[C@H]1/C=C/O[C@@]2(C)Oc3c(C)c(O)c4c(O)c(c5c(nc6cc(C)ccn65)c4c3C2=O)NC(=O)/C(C)=C\C=C\[C@H](C)[C@H](O)[C@@H](C)[C@@H](O)[C@@H](C)[C@H](OC(C)=O)[C@@H]1C [Rifaximin, [(2S,16Z,18E,20S,21S,22R,23R,24R,25S,26S,27S,28E)-5,6,21,23,25-pentahydroxy-27-methoxy-2,4,11,16,20,22,24,26-octamethyl-2,7 (epoxypentadeca-[1,11,13]trienimino)benzofuro[4,5-e]pyrido[1,2-a]-benzimidazole 1,15(2H)-dione,25-acetate]]
Papp A→B at 120 min, 30 μM ([1]; Caco-2, pH 7.4): 1.08 ×10⁻⁶ cm/s
Papp B→A at 120 min, 30 μM ([1]; Caco-2, pH 7.4): 6.17 ×10⁻⁶ cm/s
Permeability classification (Caco-2 cells): high
